The source of these data is publication PMC4901301 (Scientific Reports, 2016).

In this assay the test system is Mtb H37Rv thyX Tet-OFF conditional knockdown mutant. Format: cell-based, Mycobacterium tuberculosis.
Take `O=C1C(Cl)=C(N2CCN(C(=O)c3ccc(F)cc3)CC2)C(=O)c2ccccc21` [Compound F1]: the “MIC90 shift (increase in potency) upon ThyX depletion” value is on record as “no shift”.

In the case of `CCS(=O)(=O)N1CCN(C2=C(Cl)C(=O)c3ccccc3C2=O)CC1` [Compound F2], the “MIC90 shift (increase in potency) upon ThyX depletion” value is reported as ~ 2 fold.

Turning to `COc1ccc(CC2=CC(=O)c3ccccc3C2=O)cc1` [Compound D5], the “MIC90 shift (increase in potency) upon ThyX depletion” value is reported as “no shift”.

For the compound `O=C1C=C(Cc2ccc(F)cc2)C(=O)c2ccccc21` [Compound D4], the “MIC90 shift (increase in potency) upon ThyX depletion” value is on record as “no shift”.

As to `CC(=O)N(C1=C(Cl)C(=O)c2ccccc2C1=O)c1cccc(F)c1` [Compound E10], the “MIC90 shift (increase in potency) upon ThyX depletion” value was “no shift”.
